Assay results reported in article PMC4593522, “Development of a Radiolabeled Peptide-Based Probe Targeting MT1-MMP for Breast Cancer Detection” (PLoS ONE, 2015).
Square brackets hold non-standard residues; d marks the D form. Peptide text beside a SMILES is read from it. * marks the point of attachment. HYNIC = NNc1ccc(C(=O)*)cn1; AEEA = NCCOCCOCC(=O)O

Assays:
[1] = tested on: A549 tumor (little MT1-MMP); assay: SPECT imaging of A549 tumor-bearing mice; format: in vivo; conditions: i.v., A549 tumor bearing model, mean ± SD
Method: (§1) All animal experiments were approved by Jilin University Health Science Center Animal Care and Use Committee. Human breast carcinoma cell line MDA-MB-231 with high MT1-MMP expression and human lung adenocarcinomaepithelial cell line A549 with low MT1-MMP expression were cultured in DMEM medium containing 10% (v/v) fetal bovine serum (Invitrogen) supplemented with penicillin (100 μg/mL) and streptomycin (100 μg/mL) at 37°C with 5% CO2. MDA-MB-231 and A549 tumor models were established by subcutaneous injection of 5×10^6 cells into the upper right front flank of female athymic nude mice (Department of Experimental Animal, Peking University Health Science Center). Tumor growth was monitored by caliper measurements three times a week after the tumors are palpable. The mice were used for SPET/CT imaging when the tumor volume reached about 200 mm3 (about 14 days after tumor inoculations). The tumor volume was determined as the formula: V = a × (b^2)/2, where a and b are the length and width of each tumor in mm respectively. During the injection and image acquisition process, the mice were anesthetized with 2.5% isoflurane in oxygen delivered at a flow rate of 1.5 L/min.
(§2) The imaging study was performed using the female BALB/c nude mice bearing the MDA-MB-231 tumors and A549 tumors. Each tumor-bearing mouse was administered intravenously with [^99mTc]-(HYNIC-AF7P)(tricine)(TPPTS) (22.2 MBq/mice) in 0.1 mL saline. For blocking test, 200 μg free AF7P was intravenously injected into MDA-MB-231 tumor bearing mice 30 min before [^99mTc]-(HYNIC-AF7P)(tricine)(TPPTS) was injected. Animals were placed prone on a two-head γ-camera (SIEMENS, E. CAM) equipped with a parallel-hole, low-energy, and high-resolution collimator. Posterior images were acquired at 0.5, 2 and 4 hours post injection (p.i.). The acquisition count limits were set at 700k. After completion of imaging, animals were sacrificed by cervical dislocation.

[2] = In vitro solution stability in saline (radio-HPLC); format: physicochemical; conditions: 0.9% physiological saline, 37°C, 100 μL tracer in 400 μL total, mean ± SD
Method: HYNIC-AF7p solution (20 μL, 60 μg/mL in H2O), of tricine solution (100 μL, 100 mg/mL in 25 mM succinate buffer, pH 5.0), SnCl2 solution (10 μL, 3 mg/mL in 0.1 M HCl) and Na^99mTcO4 (100 μL, 370 MBq) in saline were added into a 5 mL Eppendorf tube. The reaction mixture was kept at room temperature for 10 min. To the reaction mixture above was added 100 μL of the TPPTS solution (50 mg/mL in 25 mM succinate buffer, pH 5.0). The vial containing the reaction mixture was sealed, cramped, and heated at 90°C for 30 min. After cooling to room temperature, sample was analyzed by radio-HPLC. The radio-HPLC method used a HP Hewlett Packard Series 1100 HPLC system equipped with a Radioflow Detector LB509 and a reversed-phase Zorbax SB-C18 column (4.6 mm × 250 mm, 5 μm). The flow rate was 1 mL/min. The gradient mobile phase started with 90% solvent A (0.1% TFA in water) and 10% solvent B (0.1% TFA in acetonitrile) to 30% solvent A and 70% solvent B at 24 min to 0% solvent A and 100% solvent B at 27 min, followed with 90% solvent A and 10% solvent B at 30 min. […]
100 μL of [^99mTc]-(HYNIC-AF7P)(tricine)(TPPTS) was added to either 0.9% physiological saline or 1 mg/mL cysteine solution. […] After 1 h, 2 h, 3 h, 4 h, 5 h and 6 h incubation, the radiochemical purity for [^99mTc]-(HYNIC-AF7P)(tricine)(TPPTS) at each time point was detected by radio-HPLC as described above.

[3] = tested on: MT1-MMP-positive MDA-MB-231 tumor; assay: SPECT imaging of MDA-MB-231 tumor-bearing mice; format: in vivo; conditions: mean ± SD; for tumor uptake (SPECT ROI), blocking: 200 μg unlabeled AF7P injected 30 min ahead of tracer; for tumor uptake (SPECT ROI), unblocked: i.v.
Method: as §1, §2

[4] = Partition coefficient (Log P), n-octanol / phosphate buffer; format: physicochemical; conditions: shake-flask, equal volume mixture of n-octanol and phosphate buffer (25 mM, pH = 7.4); mean ± SD
Method: [^99mTc]-(HYNIC-AF7P)(tricine)(TPPTS) was prepared in two steps. First, HYNIC-AF7P was synthesized (Fig 1) and reacted with Na^99mTcO4 in the presence of excess tricine and SnCl2 to form the intermediate [^99mTc]-(HYNIC-AF7P)(tricine)2, which was then allowed to react with TPPTS to form the ternary ligand complex [^99mTc](HYNIC-AF7P)(tricine)(TPPTS). […] The HPLC retention time was 9.2 min for [^99mTc](HYNIC-AF7P)(tricine)(TPPTS) and the specific activity of final product was 1200 mCi/μmol. The partition coefficient of [^99mTc]-(HYNIC-AF7P)(tricine)(TPPTS) was determined in an equal volume mixture of noctanoland phosphate buffer (25 mM, pH = 7.4). Log P value of [^99mTc]-(HYNIC-AF7P)(tricine)(TPPTS)was -2.39±0.06.

CC(C)C[C@H](NC(=O)[C@H](Cc1ccccc1)NC(=O)[C@@H](NC(=O)[C@H](CCCCN)NC(=O)[C@@H](NC(=O)[C@H](CC(N)=O)NC(=O)[C@H](Cc1c[nH]cn1)NC(=O)[C@H](CC(C)C)NC(=O)[C@H](Cc1c[nH]cn1)NC(=O)[C@H](CCCCN)NC(=O)[C@H](Cc1c[nH]c2ccccc12)NC(=O)[C@H](Cc1c[nH]cn1)NC(=O)c1ccc(NN)nc1)[C@@H](C)O)[C@@H](C)O)C(=O)NCCOCCOCC(=O)O [[^99mTc]-(HYNIC-AF7P)(tricine)(TPPTS), metal not drawn] ({HYNIC}-HWKHLHNTKTFL[AEEA]-OH)
tumor uptake (SPECT ROI), A549 tumor ([1]; 0.5 h p.i.): 1.35±0.11 %ID/g
tumor uptake (SPECT ROI), A549 tumor ([1]; 4 h p.i.): 1.01± 0.00 %ID/g
tumor uptake (SPECT ROI), A549 tumor ([1]; time point not printed (between 0.5 h and 4 h)): 1.03±0.05 %ID/g
original form (radiochemical purity) in saline ([2]; after 6 hours incubation): 93.5 ± 2.27%
original form (radiochemical purity) in saline ([2]; at the beginning): 96.8 ± 1.12%
tumor uptake (SPECT ROI), blocking ([3]; 0.5 h p.i.): 1.15±0.05 %ID/g
tumor uptake (SPECT ROI), unblocked ([3]; 0.5 h p.i.): 4.15±0.27 %ID/g
tumor uptake (SPECT ROI), blocking ([3]; 2 h p.i.): 1.05±0.12 %ID/g
tumor uptake (SPECT ROI), unblocked ([3]; 2 h p.i.): 2.58±0.21 %ID/g
tumor uptake (SPECT ROI), blocking ([3]; 4 h p.i.): 1.03±0.34 %ID/g
tumor uptake (SPECT ROI), unblocked ([3]; 4 h p.i.): 1.59±0.11 %ID/g
Log P value (partition coefficient) [4]: -2.39±0.06
